Reference: ChEMBL document CHEMBL1133713, “Novel 1,5-diphenylpyrazole nonnucleoside HIV-1 reverse transcriptase inhibitors with enhanced activity versus the delavirdine-resistant P236L mutant: lead identification and SAR of 3- and 4-substituted derivatives” (J Med Chem, 2000)
Structures can show the parent of a compound that is named as a salt.

Key:
[1] = Effective dose for inhibition of viral replication in cell culture […]; type: functional; conditions: read-out: ED50 (the source's name)
[2] = Cytotoxic concentration was determined; type: functional
[3] = molecular target: Human immunodeficiency virus type 1 reverse transcriptase (Human immunodeficiency virus 1) (UniProt Q72547); assay: In vitro inhibition of wild type resistant reverse transcriptase at a concentration of 1 uM.
[4] = molecular target: Human immunodeficiency virus type 1 reverse transcriptase (Human immunodeficiency virus 1) (UniProt Q72547); assay: In vitro inhibition of wild type resistant reverse transcriptase at a concentration of 50 uM.
[5] = tested on: Human immunodeficiency virus type 1 reverse transcriptase (Human immunodeficiency virus 1), Q72547 [P236L]; assay: In vitro Inhibition of mutant P236L reverse transcriptase at a concentration of 50 uM.
[6] = tested on: Human immunodeficiency virus type 1 reverse transcriptase (Human immunodeficiency virus 1), Q72547 [P236L]; assay: In vitro inhibition of mutant P236L reverse transcriptase at a concentration of 1 uM.
[7] = tested on: Human immunodeficiency virus type 1 reverse transcriptase (Human immunodeficiency virus 1), Q72547 [P236L]; assay: In vitro inhibition of mutant P236L reverse transcriptase at a concentration of 10 uM.
[8] = molecular target: Human immunodeficiency virus type 1 reverse transcriptase (Human immunodeficiency virus 1) (UniProt Q72547); assay: In vitro inhibition of wild type resistant reverse transcriptase at a concentration of 10 uM.
[9] = molecular target: Human immunodeficiency virus type 1 reverse transcriptase (Human immunodeficiency virus 1, UniProt Q72547); assay: In vitro ability to inhibit wild type resistant (WT) reverse transcriptase
[10] = molecular target: Human immunodeficiency virus type 1 reverse transcriptase (Human immunodeficiency virus 1, UniProt Q72547, P236L); assay: In vitro ability to inhibit mutant P236L reverse transcriptase

| Compound | EC50 [1] [µM] | CC50 [2] [µM] | inhibition [3] [%] | inhibition [4] [%] | inhibition [5] [%] | inhibition [6] [%] | inhibition [7] [%] | inhibition [8] [%] | IC50 [9] [µM] | IC50 [10] [µM] |
| --- | --- | --- | --- | --- | --- | --- | --- | --- | --- | --- |
| CCc1cc(NCc2nc3c(Cl)ccc(Cl)c3o2)c(O)nc1C [L-697661] | < 0.0001 | > 10 |  |  |  |  |  |  |  |  |
| CNC(=O)c1c(C)nn(-c2ccccc2)c1-c1ccccc1 |  |  | 5 | 3 | 0 | 15 | 0 | 7 |  |  |
| CCc1c(CC(=O)NC)nn(-c2ccccc2)c1-c1ccccc1 |  |  | 1 | 7 | 12 | 6 | 8 | 3 |  |  |
| CCc1c(CCO)nn(-c2ccccc2)c1-c1ccccc1 |  |  | 0 | 42 | 95 | 58 | 84 | 18 | > 50 | 0.65 |
| CCc1c(CC(=O)OC)nn(-c2ccccc2)c1-c1ccccc1 |  |  | 5 | 34 | 55 | 21 | 41 | 20 |  |  |
| Cc1nn(-c2ccccc2)c(-c2ccccc2)c1C(=O)O |  |  | 4 | 1 | 4 | 0 | 1 | 0 |  |  |
| Cc1nn(-c2ccccc2)c(-c2ccccc2)c1CC(=O)O |  |  | 0 | 3 | 0 | 0 | 0 | 0 |  |  |
| CCc1c(CC(N)=O)nn(-c2ccccc2)c1-c1ccccc1 |  |  | 12 | 39 | 52 | 16 | 29 | 18 |  |  |
| Cc1nn(-c2ccccc2)c(-c2ccccc2)c1CCO |  |  | 0 | 0 | 28 | 12 | 8 | 0 |  |  |
| Cc1nn(-c2ccccc2)c(-c2ccccc2)c1CC#N | 0.1 | > 10 | 37 | 90 | 93 | 47 | 77 | 71 | 2.31 | 1.14 |
| CCc1c(CC#N)nn(-c2ccccc2)c1-c1ccccc1 |  |  | 2 | 39 | 72 | 14 | 46 | 15 |  |  |
| Cc1ccnc2c1NC(=O)c1cccnc1N2C1CC1 [NEVIRAPINE] | 0.01 | > 10 |  |  |  |  |  |  |  |  |
| CCc1c(CC(=O)O)nn(-c2ccccc2)c1-c1ccccc1 |  |  | 0 | 0 | 14 | 0 | 13 | 0 |  |  |
| Cc1nn(-c2ccccc2)c(-c2ccccc2)c1CC(N)=O |  |  | 11 | 48 | 29 | 0 | 0 | 36 |  |  |
| CC#Cc1c(C)nn(-c2ccccc2)c1-c1ccccc1 |  |  | 0 | 72 | 93 | 38 | 80 | 37 | 13.4 | 1.54 |
| CCc1c(C)nn(-c2ccccc2)c1-c1ccccc1 |  |  | 1 | 67 | 94 | 50 | 81 | 42 | 14.5 | 0.52 |
| CCc1c(CCOC)nn(-c2ccccc2)c1-c1ccccc1 |  |  | 22 | 33 | 71 | 15 | 47 | 29 |  |  |
| Cc1nn(-c2ccccc2)c(-c2ccccc2)c1C(C)C |  |  | 0 | 6 | 13 | 0 | 8 | 18 |  |  |
| CC(C)Nc1cccnc1N1CCN(C(=O)c2cc3cc(NS(C)(=O)=O)ccc3[nH]2)CC1 [DELAVIRDINE MESYLATE] | 0.0001 | > 10 |  |  |  |  |  |  |  |  |
| COCc1c(C)nn(-c2ccccc2)c1-c1ccccc1 |  |  | 0 | 14 | 50 | 0 | 18 | 0 |  |  |
| C/N=C(/S)c1c(C)nn(-c2ccccc2)c1-c1ccccc1 |  |  | 0 | 0 | 0 | 0 | 0 | 0 |  |  |
| Cc1nn(-c2ccccc2)c(-c2ccccc2)c1C |  |  | 0 | 0 | 36 | 0 | 3 | 0 |  |  |
| CCCc1c(C)nn(-c2ccccc2)c1-c1ccccc1 |  |  | 14 | 49 | 71 | 4 | 56 | 31 |  |  |
| C=Cc1c(C)nn(-c2ccccc2)c1-c1ccccc1 |  |  | 3.6 | 18 | 59 | 21 | 26 | 10 |  |  |
